Measurements as given in patent publication US20200246316A1, “METHODS OF TREATING POST-SURGICAL PAIN WITH A THIAZOLINE ANTI-HYPERALGESIC AGENT” (CERSCI THERAPEUTICS, INC., priority 2019, published 2020).
Structures can show the parent of a compound that is named as a salt.

Assays:
[1] = Dog pharmacokinetics after single PO (10 mg/kg) and IV (3 mg/kg) dose; format: in vivo; settings: for bioavailability: 10 mg/kg PO vs 3 mg/kg IV
Method: The objective of the first single dose non-GLP study in dogs was to determine the pharmacokinetics and bioavailability of Compound 1 after a single oral (gavage) or single intravenous (IV) dose in dogs. The test article formulation was administered to three male dogs orally via gavage at a dose level of 10 mg/kg (dosing volume of 2 mL/kg body weight). Following a wash-out period of a minimum of three days, the same three dogs were administered the test article formulation via an IV bolus push over approximately 1-2 minutes at a dose level of 3 mg/kg (dosing volume of 0.5 mL/kg). The vehicle for oral gavage dosing was 0.5% HPMC; the vehicle for IV injection was sterile phosphate buffered saline (PBS; pH 7.4). […] Animals were returned to quarantine after the last blood collection.
After IV administration at 3 mg/kg, the test article was quantifiable up to the 4-hour time point for all animals and tmax was about 5 minutes. Since the test article was not quantifiable at the 6-hour and subsequent time points for IV administration, […] and bioavailability could not be calculated.

[2] = Cytotoxicity by lactate dehydrogenase (LDH) release; format: cell-based; settings: human, HEK293 cells; read-out: percent cytotoxicity (LDH release)
[3] = Dog single dose study, IV 10 mg/kg and oral 10 and 100 mg/kg; format: in vivo; settings: for peak plasma concentration: fasted
Method: In another study, Compound 1 was administered IV as a single dose to fasted beagle dogs at 10 mg/kg and orally at 10 and 100 mg/kg. Compound 1 was rapidly and well absorbed orally, within 1 hr, reaching peak plasma concentrations of 15 and 108 μg/mL at 10 and 100 mg/kg doses, respectively. The compound distributed readily in tissues with a moderate steady-state volume of distribution (0.3 L/kg).

OAT1 = biological target: T1, OAT1 (Homo sapiens, UniProt Q4U2R8); assay: Inhibition of uptake (SLC) transporters; format: in vitro ADME
T1 construct: expressed in transfected cells; host or cells: HEK293 cells
T1 sequence (Q4U2R8 whole entry): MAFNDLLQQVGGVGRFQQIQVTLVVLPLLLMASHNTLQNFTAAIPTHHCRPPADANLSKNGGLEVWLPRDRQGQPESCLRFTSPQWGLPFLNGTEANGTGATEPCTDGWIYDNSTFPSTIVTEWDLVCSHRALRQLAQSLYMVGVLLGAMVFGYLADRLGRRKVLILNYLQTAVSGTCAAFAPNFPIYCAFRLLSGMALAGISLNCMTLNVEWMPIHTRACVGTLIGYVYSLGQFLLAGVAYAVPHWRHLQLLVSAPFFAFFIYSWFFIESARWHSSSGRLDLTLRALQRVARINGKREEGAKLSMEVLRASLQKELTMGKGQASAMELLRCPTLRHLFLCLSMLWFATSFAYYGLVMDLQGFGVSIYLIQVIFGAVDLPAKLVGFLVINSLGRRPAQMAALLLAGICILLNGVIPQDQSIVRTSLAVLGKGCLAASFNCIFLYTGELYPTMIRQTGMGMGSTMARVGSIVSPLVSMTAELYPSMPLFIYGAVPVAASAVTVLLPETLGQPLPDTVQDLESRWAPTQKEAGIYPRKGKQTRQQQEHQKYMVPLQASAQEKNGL

Compound: CC1(C)SC(Nc2ccccc2O)=N[C@@H]1C(=O)O [Compound 1, (R)-2-(2-hydroxyphenylamino)-5,5-dimethyl-4,5-dihydrothiazole-4-carboxylic acid mono-hydrochloride]
- median t1-2 ([1]; 10 mg/kg PO): 1.4 h
- epimerization (chiral column) ([1]; dog plasma): did not provide any evidence of epimerization
- bioavailability ([1]; male, dog, plasma, oral, 10 mg/kg, read-out: mean oral bioavailability): 72%
- Tmax ([1]; male, dog, plasma, 3 mg/kg IV): ~5 min
- Cmax ([1]; male, dog, plasma, 10 mg/kg PO): 12000 ng/mL
- Tmax ([1]; male, dog, plasma, 10 mg/kg PO): ~60 min
- bioavailability ([1]; male, dog, plasma, read-out: oral bioavailability range): 56 to 91%
- cytotoxicity [2]: < 25%
- peak plasma concentration ([3]; 10 mg/kg oral): 15 µg/mL
- peak plasma concentration ([3]; 100 mg/kg oral): 108 µg/mL
- bioavailability ([3]; beagle, dog, plasma, po, both 10 and 100 mg/kg doses): 75%
- time to peak plasma concentration ([3]; oral, fasted beagle dogs): ≤ 1 h
- IC50 (OAT1; HEK293 cells, probe [3H]-p-aminohippurate (1 μM), 0.3-600 μM tested): > 600 µM
- transporter inhibition (OAT1; OAT1): does not inhibit
